Measured values as given in patent publication US7531545B2, “2-amino-3,4-dihydro-pyrido[3,4-d]pyrimidine derivatives useful as inhibitors of β-secretase (BACE)” (Janssen Pharmaceutica, N.V., priority 2005, dated 2009).
Where “and” joins values, the source holds several entries; their conditions need not be identical. Identical values can stand only once. Like-named read-outs stand apart in the source and are kept apart here.

Experiments:
β-secretase (BACE) = target: T1, β-secretase (BACE) (Homo sapiens, UniProt P56817); assay: BACE FS1 Assay (% Inhibition and Ki); type: biochemical; details: FS1 substrate; for inhibition at 0.3 µM: read-out: % Inhibition (FS) @ 0.3 μM; for inhibition at 1 µM: read-out: % Inhibition (FS) @ 1 μM; for inhibition at 3 µM: read-out: % Inhibition (FS) @ 3 μM
T1 construct: purchased Panvera
Method: BACE FS1 Assay (% Inhibition and Ki)
The following reagents were used in this assay: sodium acetate, PEG8000 (Sigma), DMSO, HEPES, FS1 substrate [R(AedensE)[…]-(DabcylK)R], β-secretase (BACE) (Panvera), and 96-well plate (HE microplate, Molecular Devices).
The following assay buffers were prepared and used in this assay: (1) enzyme assay buffer (0.05 M sodium acetate, pH5, 0.1% PEG8000 (w/v)), (2) substrate assay buffer (0.05 M sodium acetate, pH5), and (3) compound vehicle (30% DMSO in 50 mM HEPES, pH 7.4).
The FS1-substrate stock solution was prepared in DMSO as a 10 mg/mL solution. The FS1-substrate working solution was prepared by diluting the 10 mg/mL stock solution with substrate assay buffer to a final concentration of 300 μg/mL. The β-secretase (BACE) working solution was prepared by diluting a 0.83 mg/mL BACE stock solution with enzyme assay buffer to a final concentration of 4 μg/mL.
Test compounds were dissolved in DMSO to 10 mM. Compounds were further diluted in vehicle to various concentrations in the range of 405 μM to 4.05 μM (13.5× final compound concentration in screening plate).
The screening procedure for this assay was as follows: 15 μL of BACE working solution was pipetted into each well of a 96-well plate. To each well was then pipetted 2 μL of test compound at the selected concentration. Test compound and BACE were then mixed with a pipettor and incubated for 20 min at room temperature. To each well was then added 10 μL of the FS1 substrate working solution. The plates were then incubated for 1 hour at room temperature. The fluorescence for each well was then measured on an LJL analyst (Ex 360 nm/Em 530 nm).
The procedure for the blank was as follows. 15 μL of assay buffer was pipetted into each well to be used as a blank control. To each well was then added 2 μL of vehicle and […] of FS1-substrate working solution. The plates were then incubated for 1 hour at room temperature. The fluorescence was measured on an LJL analyst (Ex 360 nm/Em 530 nm).
The procedure for the positive control was as follows: 15 μL of BACE working solution was pipetted into each well to be used as a positive control. To each well was then pipetted 2 μL of vehicle. Vehicle and BACE were then mixed with a pipettor and incubated for 20 min at room temperature. To each well was then added 10 μL of the FS1 substrate working solution. The plates were then incubated for 1 hour at room temperature. The fluorescence (F1) was then measured on an LJL analyst (Ex 360 nm/Em 530 nm).
For test compounds, % inhibition was determined at each concentration as follows:
% Inhibition values of less than 30% were indistinguishable from control are listed as ≦30% in Table 18, below.
For test compounds, measured at multiple concentrations, the measured T0 and T60 values were used to calculate an IC50 value using Graphpad Software (or PIR). Ki inhibition was determined as follows: For each compound concentration and positive control, rate of cleavage of substrate (Vi, where i=compound concentration in μM) was determined as Δ Fluorescence/Δ time (min). Cleavage rates (Vi) were plotted as a function of inhibitor concentration in μM [I]. […]

human BACE-1 = human BACE-1 (Homo sapiens, UniProt P56817); assay: CEREP BACE Inhibition Assay; type: biochemical; details: for inhibition at 1 µM: read-out: % Inhibition @ 1.0 μM
Summary of the method: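 Recombinant human BACE-1 (0.25 μg) was assayed in 0.09 M sodium acetate pH 4.5, with activity followed fluorimetrically as formation of Mca-S-E-V-N-L[…] from peptide substrate. Compound autofluorescence was checked at the detection wavelengths. Basal signal was taken from wells without substrate.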

[1] = 1.0 μM, percent inhibition of the control activity, recombinant enzyme
[2] = recombinant enzyme, read-out: IC50
[3] = percent inhibition of the control activity, recombinant enzyme

T1 sequence (P56817 46-501): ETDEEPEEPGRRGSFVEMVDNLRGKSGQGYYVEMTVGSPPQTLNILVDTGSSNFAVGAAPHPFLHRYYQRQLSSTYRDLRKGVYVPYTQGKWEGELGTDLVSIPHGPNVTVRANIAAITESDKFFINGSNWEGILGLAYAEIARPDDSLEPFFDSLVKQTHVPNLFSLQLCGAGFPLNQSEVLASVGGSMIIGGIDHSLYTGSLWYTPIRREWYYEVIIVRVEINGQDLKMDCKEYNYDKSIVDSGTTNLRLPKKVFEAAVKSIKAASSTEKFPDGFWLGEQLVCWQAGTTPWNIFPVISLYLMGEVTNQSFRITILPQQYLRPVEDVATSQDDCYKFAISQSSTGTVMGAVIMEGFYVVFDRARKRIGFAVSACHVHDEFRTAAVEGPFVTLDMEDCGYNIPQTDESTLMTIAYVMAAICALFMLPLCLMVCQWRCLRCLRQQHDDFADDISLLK
Sequence of human BACE-1 (P56817 46-501): as above

Row | inhibition at 0.3 µM (β-secretase (BACE); 0.3 μM test compound) [%] | inhibition at 1 µM (β-secretase (BACE); 1 μM test compound) [%] | inhibition at 3 µM (β-secretase (BACE); 3 μM test compound) [%] | Ki (β-secretase (BACE)) | IC50 (human BACE-1; [2]) [µM] | SMILES | also measured
1 | 75 | 102 | 110 | 166 nM |  | NC1=Nc2cnc(Oc3ccccc3)cc2CN1CCNC(=O)C1CCCCC1 [Compound 1] | 
2 | 70 | 102 | 124 | 91 nM |  | CC(C)(C)OC(=O)NCCN1Cc2cc(Oc3ccccc3)ncc2N=C1N [Compound 2] | 
3 | 130 | 132 | 139 | 18 nM |  | COc1ccccc1-c1cc2c(cn1)N=C(N)N([C@@H](CCC(=O)N(C)C1CCCCC1)C1CCCCC1)C2 [Compound 3] | 
4 | 113 | 127 | 132 | 35 nM |  | CN(C(=O)CC[C@@H](C1CCCCC1)N1Cc2cc(-c3ccccc3F)ncc2N=C1N)C1CCCCC1 [Compound 4] | 
5 | 125 | 131 | 138 | 25 nM |  | CN(C(=O)CC[C@@H](C1CCCCC1)N1Cc2cc(Oc3ccccc3)ncc2N=C1N)C1CCCCC1 [Compound 5] | 
6 | 122 | 139 | 138 | 21 nM |  | NC1=Nc2cnc(Oc3ccccc3)cc2CN1CCCC(=O)NC1C2CC3CC(C2)CC1C3 (centres unmarked) [Compound 6] | 
7 | 106 | 129 | 138 | 27 nM and 16 nM |  | CC(C)C(CCC(=O)N(C)C1CCC(C(=O)O)CC1)N1Cc2cc(Oc3ccccc3)ncc2N=C1N (centres unmarked) [Compound 8] | % Inhibition (FS) @ 0.3 μM (β-secretase (BACE); 0.3 μM test compound, 0.3 µM): 121%; % Inhibition (FS) @ 1 μM (β-secretase (BACE); 1 μM test compound, 1 µM): 115%; % Inhibition (FS) @ 3 μM (β-secretase (BACE); 3 μM test compound, 3 µM): 130%
8 | 55 | 80 | 114 | 207 nM |  | CC(C)C(CCC(=O)N(CCO)C1CCC(C#N)CC1)N1Cc2cc(Oc3ccccc3)ncc2N=C1N (centres unmarked) [Compound 10] | 
9 | 47 | 78 | 120 | 124 nM |  | CC(C)C(CCC(=O)N(C)C1CCC(C#N)CC1)N1Cc2cc(Oc3ccccc3)ncc2N=C1N (centres unmarked) [Compound 11] | 
10 | 30 | 63 | 95 | 503 nM |  | CC(C)C(CCC(=O)N(CCO)C1CCC(c2nnn[nH]2)CC1)N1Cc2cc(Oc3ccccc3)ncc2N=C1N (centres unmarked) [Compound 12] | 
11 | 30 | 63 | 87 | 517 nM |  | CC(C)[C@H](CCC(=O)N(C)C1CCC(c2nnn[nH]2)CC1)N1Cc2cc(Oc3ccccc3)ncc2N=C1N (stereo partly drawn) [Compound 13, 4-(S)-(2-Amino-6-phenoxy-4H-pyrido[3,4-d]pyrimidin-3-yl)-5-methyl-hexanoic acid methyl-[4-(1H-tetrazol-5-yl)-cyclohexyl]-amide] | 
12 | 11 | 66 | 108 | 241 nM |  | CCOC(=O)C1CCC(N(CCO)C(=O)CCC(C(C)C)N2Cc3cc(Oc4ccccc4)ncc3N=C2N)CC1 (centres unmarked) [Compound 14] | 
13 | 68 | 94 | 110 | 129 nM |  | CCOC(=O)CCN(C)C(=O)CC[C@@H](C(C)C)N1Cc2cc(Oc3ccccc3)ncc2N=C1N [Compound 15] | 
14 | 12 | 51 | 80 | 1090 nM |  | CC(C)[C@H](CCC(=O)N(C)CCC(=O)O)N1Cc2cc(Oc3ccccc3)ncc2N=C1N [Compound 16] | 
15 | 4 | 61 | 86 | 222 nM |  | CCOC(=O)C1CCC(N(C)C(=O)CCC(C2CCCCC2)N2Cc3cc(Oc4ccccc4)ncc3N=C2N)CC1 (centres unmarked) [Compound 17] | 
16 | 119 | 121 | 128 | 17 nM |  | CN(C(=O)CCC(C1CCCCC1)N1Cc2cc(Oc3ccccc3)ncc2N=C1N)C1CCC(C(=O)O)CC1 (centres unmarked) [Compound 18] | 
17 |  |  |  |  | 0.11 | CC(C)(C)OC[C@@H](NC(=O)CC[C@@H](C1CCCCC1)N1Cc2cc(Oc3ccccc3)ncc2N=C1N)C(=O)N[C@@H](CCC(=O)O)C(=O)O [Compound 225] | % Inhibition @ 1.0 μM (human BACE-1; [1]): 96%
18 |  |  |  |  | 0.39 | NC1=Nc2cnc(Oc3ccccc3)cc2CN1[C@@H](CN1C(=O)NC2(CCCCC2)C1=O)C1CCCCC1 [Compound 229, 3-[2-(2-Amino-6-phenoxy-4H-pyrido[3,4-d]pyrimidin-3-yl)-2-(R)-cyclohexyl-ethyl]-1,3-diaza-spiro[4.5]decane-2,4-dione] | inhibition at 1 µM (human BACE-1; [1]): 78%
19 |  |  |  |  | 0.13 | CC(C)[C@H](CCC(=O)OCc1ccccc1)N1Cc2cc(Oc3ccccc3)ncc2N=C1N [Compound 231, 4-(2-Amino-6-phenoxy-4H-pyrido[3,4-d]pyrimidin-3-yl)-5-methyl-hexanoic acid benzyl ester] | inhibition at 1 µM (human BACE-1; [1]): 97%
20 |  |  |  |  | 0.11 | CC(C)[C@H](COCCC1CCCCC1)N1Cc2cc(Oc3ccccc3)ncc2N=C1N [Compound 232, 3-[1-(2-cyclohexyl-ethoxymethyl)-(R)-(2-methyl-propyl)]-6-phenoxy-3,4-dihydro-pyrido[3,4-d]pyrimidin-2-ylamine] | inhibition at 1 µM (human BACE-1; [1]): 99%
21 |  |  |  |  | 0.88 | CC(C)=CCOC[C@@H](C(C)C)N1Cc2cc(Oc3ccccc3)ncc2N=C1N [Compound 233, 3-[2-Methyl-1-(3-methyl-but-2-enyloxymethyl)-propyl]-6-phenoxy-3,4-dihydro-pyrido[3,4-d]pyrimidin-2-ylamine] | inhibition at 1 µM (human BACE-1; [1]): 52%
22 |  |  |  |  | 0.18 | CC(C)[C@H](COCC1CCCCC1)N1Cc2cc(Oc3ccccc3)ncc2N=C1N [Compound 234] | inhibition at 1 µM (human BACE-1; [1]): 94%
23 |  |  |  |  |  | CC(C)C(COCC1CC(C2CCCCC2)=NO1)N1Cc2cc(Oc3ccccc3)ncc2N=C1N (centres unmarked) [Compound 235] | IC50 (human BACE-1; IC50 (μM), recombinant enzyme): 0.61 µM; inhibition at 1 µM (human BACE-1): 59%
24 |  |  |  |  | 0.18 | CC(C)[C@H](COCC1CC(C(C)(C)C)=NO1)N1Cc2cc(Oc3ccccc3)ncc2N=C1N (some centres unmarked) [Compound 236, 3-[1-(3-tert-Butyl-4,5-dihydro-isoxazol-5-ylmethoxymethyl)-2-methyl-propyl]-6-phenoxy-3,4-dihydro-pyrido[3,4-d]pyrimidin-2-ylamine] | inhibition at 1 µM (human BACE-1; [1]): 92%
25 |  |  |  |  | 0.27 | CC(C)[C@H](COCc1cc(C(C)(C)C)no1)N1Cc2cc(Oc3ccccc3)ncc2N=C1N [Compound 237] | inhibition at 1 µM (human BACE-1; [1]): 87%
26 |  |  |  |  | 0.54 | CC(C)C(COCC1CC(CC(C)(C)C)=NO1)N1Cc2cc(Oc3ccccc3)ncc2N=C1N (centres unmarked) [Compound 238] | inhibition at 1 µM (human BACE-1; [1]): 72%
27 |  |  |  |  |  | CC(C)(C)c1cn(C[C@@H](C2CCCCC2)N2Cc3cc(Oc4ccccc4)ncc3N=C2NN)nn1 [Compound 245, {3-[2-(4-tert-Butyl-[1,2,3]triazol-1-yl)-1-(R)-cyclohexyl-ethyl]-6-phenoxy-3,4-dihydro-pyrido[3,4-d]pyrimidin-2-yl}-hydrazine] | inhibition at 10 µM (human BACE-1; [3]): 29%
28 |  |  |  |  |  | CC(C)(C)c1cn(C[C@@H](C2CCCCC2)N2Cc3cc(Oc4ccccc4)ncc3N=C2NO)nn1 [Compound 246, N-{3-[2-(4-tert-Butyl-[1,2,3]triazol-1-yl)-1-(R)-cyclohexyl-ethyl]-6-phenoxy-3,4-dihydro-pyrido[3,4-d]pyrimidin-2-yl}-hydroxylamine] | inhibition at 10 µM (human BACE-1; [3]): 94%
